Measured values: US6500823B1, “Unsaturated hydroximic acid derivatives as per abstract inhibitors” (N-Gene Research Laboratories, Inc., priority 1998, dated 2002)
Structures can show the parent of a compound that is named as a salt.

Tests used:
[1] = biological target: T1, poly-ADP-ribose polymerase from rat liver (Rattus norvegicus, UniProt P27008); experiment: In vitro PARP inhibition on isolated enzyme; type: biochemical; settings: for IC50: isolated rat liver enzyme, ± SEM from four parallel measurements, read-out: PARP I0.5 mg/l (converted)
T1 construct: We have isolated the poly-ADP-ribose polymerase from rat liver; from tissue; host or cells: rat liver
T1 sequence (P27008 whole entry): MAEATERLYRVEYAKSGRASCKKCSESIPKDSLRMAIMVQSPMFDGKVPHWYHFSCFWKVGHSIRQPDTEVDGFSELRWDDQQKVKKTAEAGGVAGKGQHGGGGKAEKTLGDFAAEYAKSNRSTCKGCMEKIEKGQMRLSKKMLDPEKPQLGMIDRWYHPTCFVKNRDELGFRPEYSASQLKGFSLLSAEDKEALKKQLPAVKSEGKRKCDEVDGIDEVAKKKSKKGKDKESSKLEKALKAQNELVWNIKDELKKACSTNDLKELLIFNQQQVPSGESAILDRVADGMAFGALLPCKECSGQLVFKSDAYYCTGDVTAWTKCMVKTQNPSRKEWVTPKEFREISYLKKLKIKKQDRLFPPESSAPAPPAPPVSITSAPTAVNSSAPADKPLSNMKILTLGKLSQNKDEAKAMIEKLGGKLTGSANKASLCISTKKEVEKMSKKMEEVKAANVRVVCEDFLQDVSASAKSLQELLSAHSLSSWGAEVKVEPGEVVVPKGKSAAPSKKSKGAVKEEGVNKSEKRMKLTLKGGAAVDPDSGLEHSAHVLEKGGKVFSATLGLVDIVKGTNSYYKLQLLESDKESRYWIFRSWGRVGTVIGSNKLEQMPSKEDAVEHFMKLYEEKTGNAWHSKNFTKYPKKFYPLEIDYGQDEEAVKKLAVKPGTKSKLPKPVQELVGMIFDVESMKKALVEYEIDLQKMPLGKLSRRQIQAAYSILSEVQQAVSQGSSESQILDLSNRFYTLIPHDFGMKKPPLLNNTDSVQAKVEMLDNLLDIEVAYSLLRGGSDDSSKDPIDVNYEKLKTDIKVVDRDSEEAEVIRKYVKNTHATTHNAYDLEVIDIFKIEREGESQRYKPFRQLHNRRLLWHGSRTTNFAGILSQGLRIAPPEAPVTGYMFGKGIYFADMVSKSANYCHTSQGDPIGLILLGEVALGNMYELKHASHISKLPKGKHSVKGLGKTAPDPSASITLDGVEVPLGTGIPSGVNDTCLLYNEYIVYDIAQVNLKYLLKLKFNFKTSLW
Protocol: We have isolated the poly-ADP-ribose polymerase from rat liver according to the article Shah.G. M.,Anal Biochem, 227, 1-13 (1995).
We have determined the PARP activation in 130 μl of reaction mixture, which consists of: 100 mM Tris-HCl puffer, pH 8.0, 10 mM MgCl2, 10% glycerol, 1.5 mM DTT, 100 μg of (32P), or (3H), NAD+, 10 μg of histone. We have stopped the reaction after 10 minutes with 8% perchloric acid and seperated the protein through centrifugation (10 minutes, 10.000×g). We have washed the precipitate with 8% perchloric acid, and we measured the radioactivity connected to the protein with scintillation counter.

[2] = tested on: male SPRD rats; experiment: Reperfusion induced arrhythmia after LAD occlusion, survival rate; type: in vivo, rat; settings: for responders at 5 mg/kg: Rattus norvegicus, iv, control 15.38, read-out: % SURV; for effect on survival of reperfusion arrhythmia, in words: compared with Example 2 (100% survival)
Protocol: Experiments were carried out in male SPRD rats (acceptable body weight range: 300-350 g). The animals were anesthetized with sodium pentobarbital (Nembutal®: 60 mg/kg intraperitoneally) and remained breathing spontaneously. The animals were ventilated with respirator (MTA Kutesz) by using trachea cannule which was inserted after tracheotomy. The standard lead of the ECG II is monitored. Right femoral artery was catheterized and connected to a pressure transducer (BPR-01, Experimetria, Hungary), a preamplifier and pulsotachometer (HG-M, Experimetria, Hungary) for arterial blood pressure and heart rate measurement, respectively. The external jugular vein was cannulated for drug administration. After thoracotomy a silk (braided, coated 4-0) was placed under the left anterior coronary (LAD) artery. After a few minutes' stabilization period, a 5 min occlusion of LAD artery was applied, followed by a 10 min reperfusion period. The survival rate was evaluated.

[3] = tested on: mouse HSP-70 gene promoter in mouse fibroblast L929 cells; experiment: HSP-70 promoter-luciferase reporter gene assay; type: cell-based; settings: Control = 100; 10 μl of 10^-2 M solution to 1 ml culture, 30 min, 1 hour regeneration
Source text: The activity of HSP-70 was studied by reporter gene assay forming a DNA hybrid. To the promoter sequence of HSP-70 encoding the heat shock protein was fused a gene of a protein that can be detected by a well-measurable enzyme activity. Biotechnological processes were used. As reporter gene luciferase enzyme was employed, the activity of which can be well determined by luminescence measurement. If the promoter of the gene of the luciferase enzyme is substituted by the promoter of the HSP-70 gene, then the change in the activity of the luciferase enzyme i.e. the change of the frequency of the transcription from the gene correlates with the frequency of the transcription of the HSP-70 gene that proceeds in the given circumstances. In this way, if a substance or process influences the expression of the HJSP-70 gene, the effect can be studied through the measurement of the luciferase enzyme activity. The effect of the substances to be tested on the HSP-70 expression was studied in such an experimental system.
A double-stranded DNA circular molecule i.e. a plasmid containing the HSP-70 reporter gene was constructed to perform the measurements. An almost 600 bp long sequence of the mouse HSP-70 gene promoter (5′ direction from the start site of the gene) was fused to the coding sequence of the luciferase gene originated from Photymus pyralis. The applied promoter sequence contained several protein binding sites facilitating the expression of the HSP-70 gene. The HSP promoter-luciferase heterologous gene construct was built in a pBR based plasmid vector that can be selected for neomycin. This HSP-70-luciferase plasmid was transfected into mouse fibroblast L929 cells. The assay was performed as follows.
The HSP-70-luc plasmid containing L929 cells are grown in DMEM (Dulbecco's Modified Eagle's Medium) medium supplemented with 5% FCS (Fetal Calf Serum). 10^4 cells are plated in the wells of a 24-well Costar cell culture plate in 1 ml of culture medium. Test substances are dissolved in PBS (Phosphate Buffered Saline) in 10^−2 M concentration. After attachment of the cells (3-4 hours after plating) 10 μl of the solution are given to the cultures and cells are incubated for 30 min. at 37° C. in a CO2 thermostat. Culture medium is then changed for fresh one (without test substance) and cells are allowed to regenerate for 1 hour at 37° C., then once washed with PBS. After removal of PBS 40 μl of 1× lysis buffer are added to the cells, and the samples are kept on ice for 30 minutes. Then the samples are transferred into Eppendorf vials and centrifuged at 14000 rpm for 20 min at 4° C. 5 μl of the supernatant is added to 25 μl of luciferase assay buffer and the luminescence of the samples is measured for 25 seconds in a luminometer.

[4] = biological target: Moloney murine leukemia virus reverse transcriptase (Moloney murine leukemia virus, UniProt P03355); experiment: Reverse transcriptase inhibition, (3H)dTTP incorporation; type: biochemical; settings: for inhibition at 2 µg/mL: concentration 2 μg/ml
Protocol: The compounds may be sorted into group of the non-nucleoside type reverse transcriptase inhibitors. Tests were performed on Moloney murine leukemia virus reverse transcriptase that is considered as a good model of the HIV reverse transcriptase enzyme. The experimental assembly was the following.
The assay measures the incorporation of (3H)dTTP into cDNA using poly(dA) template and oligo(dT)12-18 primer. The reaction was carried out in 20 μl volume.
The reaction was started by addition of 5U reverse transcriptase
The reaction mixture was incubated for 40 min at 37° C. Then 15 μl of the reaction mixture was loaded on Whatman DE81 filter discs and filters were washed sequentially with 5% disodium hidrogen phosphate buffer, with water and with 96% (v/v) ethanol. After drying, the filters were placed into scintillation cocktail (OptiPhase, HiSafe, Wallac) and the radioactivity was measured in a Packard Tri-Carb 2200 scintillation counter.
Two compounds with known inhibitory activity were used in the experiments as positive control. AZT is a nucleoside analog while the compound Nevirapin is a non-nucleoside type inhibitor. Nevirapine binds to the so called benzodiazepine binding site of the enzyme. The applied concentrations of the test compounds were in the 0.2-2 μg/ml concentration range.

[5] = tested on: HepG2 cells; experiment: LDH enzyme activity in hypoxia exposed HepG2 cells; type: cell-based; settings: Homo sapiens, 30 μg/ml, hypoxia 1% O2 24 hours, Hypoxic control = 100, read-out: Relative LDH content, %
Protocol: HepG2 cell were cultured in DMEM medium supplemented with 10% FCS in 5% CO2 containing air at 37° C. 10^5 cells were plated in the wells of Costar 24-well culture plates in 1 ml medium. On the following day, cells were treated with the test compounds in a concentration of 30 μg/ml, then cells were exposed to hypoxia treatment (1% O2, 5% CO2 in nitrogen gas) for 24 hours. A part of the control cultures were treated with water used as the solvent, and another part of them was not exposed to hypoxia. At the end of the hypoxic treatment, medium was removed and cells were washed twice with cold PBS. Cells lysates were prepared in 0.05% Triton X-100 containing phosphate buffer (0.05 M) and after centrifugation (2 min. […]) the LDH activity of the supernatant was determined on the basis of NADH consumption in the presence of sodium piruvate substrate.
The LDH activity of the cells treated with the test compounds and compared to the activity of the control exposed to hypoxia is shown in Table 6.

SMILES: NC(C=Cc1cccnc1)=NOCC(O)CN1CCCCC1 (stereo not drawn) [Example 5, O-(3-Piperidino-2-hydroxy-propyl)-3-(3-Pyridyl)acrylic Acid Amidoxime Dihydrochloride]
- IC50 [1]: 58.1 µM
- responders at 5 mg/kg [2]: 50%
- Activity (HSP-70 promoter luciferase) [3]: 199
- inhibition at 1 µg/mL ([4]; concentration 1.0 μg/ml, read-out: Enzyme inhibition, %): 52%
- inhibition at 2 µg/mL ([4]; read-out: Enzyme inhibition, %): 57%
- reverse transcriptase inhibiting effect compared with Nevirapin and AZT, in words ([4]; dose dependent, lower than AZT): higher than that of Nevirapin

SMILES: CC(C)(C)NCC(O)CON=C(N)C=Cc1ccccc1 (stereo not drawn) [Example 6, O-(3-t.Buthylamino-2-hydroxy-propyl)-cinnamic Acid Amidoxime]
- IC50 [1]: 27.5 µM
- Activity (HSP-70 promoter luciferase) [3]: 302

SMILES: NC(C=Cc1ccccc1)=NOCC(O)CN1CCOCC1 (stereo not drawn) [Example 7, O-(3-Morpholino-2-hydroxy-propyl)-cinnamic Acid Amidoxime]
- IC50 [1]: 22.9 µM
- responders at 5 mg/kg [2]: 42%
- activity at 30 µg/mL [5]: 141%

SMILES: COc1ccc(C=CC(N)=NOCC(O)CNC(C)(C)C)cc1OC (stereo not drawn) [Example 8, O-(3-t.Butylamino-2-hydroxy-propyl)-3,4-dimethoxycinnamic Acid Amidoxime Dihydrochloride]
- IC50 [1]: 28.5 µM
- responders at 5 mg/kg [2]: 37.5%
- activity at 30 µg/mL [5]: 116%

SMILES: COc1ccc(C=CC(N)=NOCC(O)CN2CCOCC2)cc1OC (stereo not drawn) [Example 9, O-(3-Morpholino-2-hydroxy-propyl-3,4-dimethoxycinnamic Acid Amidoxime Hydrochloride]
- IC50 [1]: 35.6 µM

SMILES: NC(C=Cc1cccnc1)=NOCC(O)CN1CCOCC1 (stereo not drawn) [Example 10, O-(3-Morpholino-2-hydroxy-propyl)-3-(3-pyridyl)-acrylic Acid Amidoxime Hydrochloride]
- IC50 [1]: 55.5 µM

SMILES: NC(C=Cc1ccccc1)=NOCC(O)CN1CCc2ccccc2C1 (stereo not drawn) [Example 11, O-[3-(1,2,3,4-Tetrahydro-2-isoquinolyl)-2-hydroxy-propyl)]cinnamic Acid Amidoxime Dihydrochloride]
- IC50 [1]: 51.2 µM
- responders at 5 mg/kg [2]: 20%
- activity at 30 µg/mL [5]: 124%

SMILES: COc1ccc(C=CC(N)=NOCC(O)CN2CCc3ccccc3C2)cc1OC (stereo not drawn) [Example 12, O-[3-(1,2,3,4-Tetrahydro-2-isoquinolyl)-2-hydroxy-propyl]-3,4-dimethoxy-cinnamic Acid Amidoxime Dihydrochloride]
- IC50 [1]: 19.4 µM

SMILES: NC(C=Cc1cccnc1)=NOCC(O)CN1CCc2ccccc2C1 (stereo not drawn) [Example 13, O-(3-(1,2,3,4-Tetrahydro-2-isoquinolyl)-2-hydroxy-propyl)-3-(3-pyridyl) Acrylic Acid Amidoxime Dihydrochloride]
- IC50 [1]: 34 µM
- Activity (HSP-70 promoter luciferase) [3]: 156

SMILES: CC(C)(C)NCC(O)CON=C(N)C=Cc1cccnc1 (stereo not drawn) [Example 14, O-(3-t.Buthylamino-2-hydroxy-propyl)-3-(3-pyridyl)acrylic Acid Amidoxime Dihydrochloride]
- IC50 [1]: 44.5 µM
- responders at 5 mg/kg [2]: 43%

SMILES: NC(C=Cc1ccccc1)=NOCC(O)CN1CCCC1 (stereo not drawn) [Example 15, O-3-Pyrrolidino-2-hydroxy-propyl) Cinnamic Acid Amidoxime dihydrochloride]
- IC50 [1]: 65.7 µM
- Activity (HSP-70 promoter luciferase) [3]: 115

SMILES: COc1ccc(C=CC(N)=NOCC(O)CN2CCCC2)cc1OC (stereo not drawn) [Example 16, O-(3-Pyrrolidino-2-hydroxy-propyl)-3,4-dimethoxycinnamic Acid Amidoxime Dihydrochloride]
- IC50 [1]: 51.5 µM
- activity at 30 µg/mL [5]: 120%

SMILES: NC(C=Cc1cccnc1)=NOCC(O)CN1CCCC1 (stereo not drawn) [Example 17, O-(3-Pyrrolidino-2-hydroxy-propyl)-3-(3-pyridyl)acrylic Acid Amidoxime Hydrochloride]
- IC50 [1]: 51.7 µM
- activity at 30 µg/mL [5]: 118%

SMILES: COc1ccc(C=CC(N)=NOCC(O)CN2CCCCC2)cc1OC (stereo not drawn) [Example 18, O-(3-Piperidino-2-hydroxy-propyl)-3,4-dimethoxycinnamic Acid Amidoxime]
- IC50 [1]: 93.8 µM
- responders at 5 mg/kg [2]: 67%
- effect on survival of reperfusion arrhythmia, in words [2]: similarly outstanding effect

SMILES: NC(C=C1CCCCC1)=NOCC(O)CN1CCCCC1 (stereo not drawn) [Example 19, O-(3-Piperidino-2-hydroxy-propyl)cyclohexyldene Acetamidoxime]
- PARP inhibitor classification in words ([1]; conclusion on Table 1): very poor PARP inhibitor
- IC50 [1]: 609 µM

SMILES: OC(CON=C(Cl)C=Cc1ccccc1)CN1CCCC1 (stereo not drawn) [Example 26, N-(3-Pyrrolidino-2-hydroxy-propoxy)-3-phenyl Acrylimidoyl Chloride]
- activity at 30 µg/mL [5]: 112%

SMILES: CC(C)(C)NCC(O)CON=C(Cl)C=Cc1cccnc1 (stereo not drawn) [Example 31, N-(3-t.Butylamino-2-hydroxy-propoxy)-3-(3 pyridyl)acrylimidoyl Chloride Hydrogen Maleate]
- IC50 [1]: 19.2 µM

SMILES: ClC(C=Cc1cccnc1)=NOCCCN1CCCCC1.O=C(O)/C=C\C(=O)O [Example 32, N-(3-Piperidino-propoxy)-3-(3-pyridyl)acrylimidoyl Chloride Hydrogen Maleate]
- responders at 5 mg/kg [2]: 71.4%
- effect on survival of reperfusion arrhythmia, in words [2]: similarly outstanding effect

SMILES: OC(CON=C(Cl)C=Cc1cccnc1)CN1CCOCC1 (stereo not drawn) [Example 33, N-(3-Morpholino-2-hydroxy-propoxy)-3-(3-pyridyl)acrylimidoyl Chloride Hydrogen Maleate]
- IC50 [1]: 15.8 µM

SMILES: Cc1ccnc2c1NC(=O)c1cccnc1N2C1CC1 [Nevirapin, reference compound]
- inhibition at 0.2 µg/mL ([4]; concentration 0.2 μg/ml, read-out: Enzyme inhibition, %): 21%
- inhibition at 2 µg/mL ([4]; read-out: Enzyme inhibition, %): 26%
